Source: patent US20200368247A1, “CENICRIVIROC FOR THE TREATMENT OF FIBROSIS” (Tobira Therapeutics, Inc., priority 2014, published 2020)
Like-named read-outs stand apart in the source and are kept apart here.

Legend:
[1] = Study 202 fasting metabolic laboratory parameters; format: in vivo, human
From the text: All abnormalities in total cholesterol, LDL cholesterol, triglycerides, or glucose were Grade 1 or Grade 2.
Mean baseline values and changes from baseline in HbA1c, HOMA-IR, fasting LDL, fasting HDL, fasting total cholesterol, fasting total cholesterol/HDL ratio, and fasting triglycerides are shown in Table 36.

[2] = for SAE: Suicidal ideation: through Week 48
From the text: Subjects with a history of HIV-2, hepatitis B and/or C, cirrhosis of the liver or any known active or chronic active liver disease were excluded from the study.
Most AEs were mild or moderate (Grade 1 or Grade 2). […] None of the Grade ≥3 AEs (preferred terms) were reported in more than 1 subject. Table 28 provides an overview of deaths, SAES, AEs, AEs by severity, AEs related to study medication, and AE leading to discontinuation.

[3] = All CVC (N = 115), EFV (N = 28)

## CCCCOCCOc1ccc(-c2ccc3c(c2)/C=C(/C(=O)Nc2ccc([S@@+]([O-])Cc4cncn4CCC)cc2)CCCN3CC(C)C)cc1 [CVC, (S)-8-[4-(2-Butoxyethoxy)phenyl]-1-isobutyl-N-(4-{[(1-propyl-1H-imidazol-5-yl)methyl]sulfinyl}phenyl)-1,2,3,4-tetrahydro-1-benzazocine-5-carboxamide]
[1]; CVC 200 mg (N = 57), through Week 48
  Fasting triglycerides abnormality, any grade: 1 (2%) n (%)
[1]; CVC 200 mg, Week 4
  Fasting triglycerides, mean change from baseline: -2 mg/dL
  HbA1c, mean change from baseline: −0.08 % Hb
[1]; CVC 200 mg, Week 12
  HbA1c, mean change from baseline: −0.08 % Hb
[1]; CVC 200 mg, Week 24
  HbA1c, mean change from baseline: 0.06 % Hb
[1]; CVC 200 mg, Week 48
  Fasting total cholesterol, mean change from baseline: -9 mg/dL
  HbA1c, mean change from baseline: 0.10 % Hb
[2]; [3]
  Deaths: 0 n
  SAE: Suicidal ideation: 0 n
[2]; All CVC (N = 115), EFV (N = 28; Grade 4 event)
  Grade 3 or 4 AE: Suicidal ideation: 0 n
[2]; CVC 100 mg (N = 58)
  Deaths: 0 n
  Grade 3 or 4 AE: Suicidal ideation: 0 n
  SAE: Suicidal ideation: 0 n
[2]; CVC 200 mg (N = 57)
  Deaths: 0 n
  Grade 3 or 4 AE: Suicidal ideation: 0 n
  SAE: Suicidal ideation: 0 n
[2]; human, in vivo, 48 week
  AE leading to discontinuation: Abnormal dreams: 0 n
  AE leading to discontinuation: Aggression: 1 n
  AE leading to discontinuation: Anxiety: 0 n
  AE leading to discontinuation: Depression: 1 n
  AE leading to discontinuation: Dermatitis allergic: 0 n
  AE leading to discontinuation: Ear and labyrinth disorders: 0 n
  AE leading to discontinuation: Insomnia: 0 n
  AE leading to discontinuation: Psychiatric disorders: 1 n
  AE leading to discontinuation: Rash: 0 n
  AE leading to discontinuation: Skin and subcutaneous tissue disorders: 0 n
  AE leading to discontinuation: Tachyphrenia: 0 n
  AE leading to discontinuation: Thinking abnormal: 1 n
  AE leading to discontinuation: Tinnitus: 0 n
  Any AE, %: (86%)
  Depression, %: (3%)
  Diarrhoea, %: (15%)
  Fatigue, %: (12%)
  Headache, %: (14%)
  Nausea, %: (16%)
  Rash, %: (12%)
  Subjects with AEs leading to discontinuation of study medication: 1 n
  Subjects with AEs related to study medication: 54 n
  Subjects with AEs, by worst grade severity: Grade 1: 50 n
  Subjects with AEs, by worst grade severity: Grade 2: 44 n
  Subjects with AEs, by worst grade severity: Grade 3: 5 n
  Subjects with AEs, by worst grade severity: Grade 4: 0 n
  Syphilis, %: (1%)
  Upper respiratory tract infection, %: (16%)
[2]; human, in vivo, 48 weeks
  AE leading to discontinuation: Disturbance in attention: 0 n
  AE leading to discontinuation: Dizziness: 0 n
  AE leading to discontinuation: Eye disorders: 0 n
  AE leading to discontinuation: Gastrointestinal disorders: 0 n
  AE leading to discontinuation: General disorders and administration site conditions: 1 n
  AE leading to discontinuation: Hypoaesthesia: 0 n
  AE leading to discontinuation: Malaise: 1 n
  AE leading to discontinuation: Musculoskeletal and connective tissue disorders: 0 n
  AE leading to discontinuation: Musculoskeletal discomfort: 0 n
  AE leading to discontinuation: Nausea: 0 n
  AE leading to discontinuation: Nervous system disorders: 0 n
  AE leading to discontinuation: Photophobia: 0 n
  Abnormal dreams, %: (8%)
  Any AE leading to discontinuation of study drug: 1 n
  Any Grade 3 AE: 5 n
  Any Grade 4 AE: 0 n
  Any SAE: 2 n
  Dizziness, %: (10%)
  Grade 3 or 4 AE: Abdominal pain: 1 n
  Grade 3 or 4 AE: Blindness unilateral: 1 n
  Grade 3 or 4 AE: Blood creatine phosphokinase increased: 1 n
  Grade 3 or 4 AE: Cardiac disorders: 1 n
  Grade 3 or 4 AE: Corneal infection: 1 n
  Grade 3 or 4 AE: Depression: 0 n
  Grade 3 or 4 AE: Dermatitis allergic: 0 n
  Grade 3 or 4 AE: Ear and labyrinth disorders: 0 n
  Grade 3 or 4 AE: Eye disorders: 1 n
  Grade 3 or 4 AE: Gastrointestinal disorders: 1 n
  Grade 3 or 4 AE: General disorders and administration site conditions: 1 n
  Grade 3 or 4 AE: Infections and infestations: 1 n
  Grade 3 or 4 AE: Investigations: 1 n
  Grade 3 or 4 AE: Palpitations: 1 n
  Grade 3 or 4 AE: Psychiatric disorders: 1 n
  Grade 3 or 4 AE: Pyrexia: 1 n
  Grade 3 or 4 AE: Skin and subcutaneous tissue disorders: 0 n
  Grade 3 or 4 AE: Stress: 1 n
  Grade 3 or 4 AE: Tinnitus: 0 n
  Grade 3 or 4 AE: Weight decreased: 0 n
  Insomnia, %: (6)
  Lymphadenopathy, %: (6%)
  Nasopharyngitis, %: (9%)
  SAE: Blindness unilateral: 1 n
  SAE: Corneal infection: 1 n
  SAE: Depression: 0 n
  SAE: Eye disorders: 1 n
  SAE: Gastroenteritis: 1 n
  SAE: Infections and infestations: 2 n
  SAE: Psychiatric disorders: 0 n
  Subjects with serious AEs: 2 n
  Subjects with ≥1 AE: 99 n
